According to patent publication EP4653444A1, “FUSED TRICYCLIC COMPOUND AS KINASE INHIBITOR” (Hangzhou Innogate Pharma Co., Ltd., priority 2023, dated 2024):
Where two headings read alike, the source gives them in different places.

Columns and labels:
Type in all cases: biochemical
FAK kinase = FAK kinase (Homo sapiens, UniProt Q05397); assay: FAK kinase activity inhibition assay, method A (HTRF) and method B (Lantha screen)
Procedure: The HTRF method was used to evaluate the inhibitory activity of the compounds against FAK kinase. […]. The reaction conditions were: FAK kinase at 0.1 ng/µL; ATP 10 µM; substrate concentration 1 µM. Compounds were serially diluted in DMSO and shaken on a shaker for 20 minutes. Prepare 2× kinase using 1× reaction buffer. Transfer 25 nL compound to a 384-well plate using Echo 655. Add 2.5 µL kinase per well. Seal the plate with sealing film, centrifuge at 1000 rpm for 60 seconds, and incubate at 25°C for 12 hours. Prepare 2× ATP/substrate mix using 1× enzyme reaction buffer and add 2.5 µL 2× ATP/substrate mix per well. Seal the plate with sealing film, centrifuge at 1000 rpm for 60 seconds, and incubate at 25°C for 50 minutes. Prepare 2×XL665 & antibody solution using HTRF detection buffer, and add 5 µL per well. Incubate at 25°C for 60 minutes. Read fluorescence at 620 nm (Cryptate) and 665 nm (XL665). Calculate the ratio per well (Ratio_665/620 nm). % Inhibition = 100% - [(Compound Ratio - Positive Control Ratio)/ (Negative Control Ratio - Positive Control Ratio)] × 100%. IC50 values (half-maximal inhibitory concentration) were calculated by nonlinear regression using GraphPad Prism 7.0. Y = Bottom + (Top - Bottom)/ (1 + 10^ ((LogIC50 - X) × Hill Slope)), where X is the log of compound concentration and Y is the % inhibition.
The Lantha screen assay was used to evaluate the FAK kinase inhibitory activity. Compounds were dissolved in 100% DMSO at 10 mM stock concentration. Prepare 1× kinase buffer (25 mM HEPES, pH 7.5, 0.01 mM Triton, 0.5 mM EGTA, 0.01% Brij-35). Dilute compounds in a gradient, and transfer 5 µL compound into the reaction plate. Prepare 2× kinase solution with 1× Kinase buffer. Add 5 µL kinase solution to compound and positive control wells, and 5 µL 1× Kinase buffer to negative control wells. Mix reaction plate by shaking. Prepare 4× ATP/Fluorescein-polyGT substrate mix with 1× Kinase buffer. Add 2.5 µL substrate solution to initiate the reaction. Shake and incubate at room temperature for 30 minutes. Prepare 2× detection reagent (2 nM antibody, 10 mM EDTA) and add 10 µL per well to stop the reaction. Briefly centrifuge, mix, and incubate for 60 minutes. Read fluorescence at 340 nm excitation and 520 nm/495 nm emission using EnVision. Collect data and calculate 520 nm/495 nm ratio. Calculate the inhibition percentage using the formula: % Inhibition = (Max - Sample Ratio)/(Max - Min) × 100, where min is the mean of negative control wells (no enzyme activity), and max is the mean of positive control wells (DMSO-inhibited conversion rate).Use XLFit Excel add-in version 5.4.0.8 to determine the IC50 values of each compound against the enzyme activity: Y = Bottom + (Top - Bottom)/(1 + (IC50/X)^HillSlope).

HPK1 kinase = HPK1 kinase (Homo sapiens, UniProt Q92918); assay: HPK1 kinase activity inhibition assay (Mobility shift assay)
Sequence of HPK1 kinase (Q92918 whole entry): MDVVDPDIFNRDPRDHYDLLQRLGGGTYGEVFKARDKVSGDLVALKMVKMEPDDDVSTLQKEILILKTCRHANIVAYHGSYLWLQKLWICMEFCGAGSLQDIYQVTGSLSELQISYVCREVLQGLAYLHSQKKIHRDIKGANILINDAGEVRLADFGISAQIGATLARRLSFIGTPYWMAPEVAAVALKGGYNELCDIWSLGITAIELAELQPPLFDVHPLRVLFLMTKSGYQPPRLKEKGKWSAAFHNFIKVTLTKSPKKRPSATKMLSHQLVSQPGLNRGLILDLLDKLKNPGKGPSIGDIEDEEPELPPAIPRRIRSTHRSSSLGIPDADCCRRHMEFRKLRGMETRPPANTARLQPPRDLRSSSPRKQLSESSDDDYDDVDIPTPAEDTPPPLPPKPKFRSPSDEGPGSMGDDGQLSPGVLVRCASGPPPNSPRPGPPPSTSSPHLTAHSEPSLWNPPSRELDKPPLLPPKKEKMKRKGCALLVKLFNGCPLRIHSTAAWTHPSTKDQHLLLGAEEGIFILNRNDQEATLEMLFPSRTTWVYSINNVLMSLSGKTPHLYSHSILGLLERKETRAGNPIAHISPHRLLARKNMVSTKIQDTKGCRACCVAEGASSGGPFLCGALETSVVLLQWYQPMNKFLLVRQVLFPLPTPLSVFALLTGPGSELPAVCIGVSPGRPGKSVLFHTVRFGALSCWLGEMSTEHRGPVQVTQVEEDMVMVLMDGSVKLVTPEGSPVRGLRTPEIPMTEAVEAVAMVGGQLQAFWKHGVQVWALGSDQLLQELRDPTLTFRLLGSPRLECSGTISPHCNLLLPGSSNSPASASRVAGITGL
Procedure: Measure compound inhibitory activity against HPK1 kinase using Mobility shift assay. Compounds were dissolved in 100% DMSO to prepare 10 mM stock solutions. 1× Kinase buffer was prepared. Test compounds were serially diluted in 5-fold gradients, and 250 nL of 100× final concentration compounds were transferred to destination plate 3573 using an Echo 550 liquid handler. A 2.5× final concentration kinase solution was prepared in 1× Kinase Buffer. 10 µL of the 2.5× kinase solution was added to both compound wells and positive control wells, while 10 µL of 1× Kinase buffer was added to negative control wells. The plate was centrifuged at 1000 rpm for 30 seconds, mixed by orbital shaking, and incubated at room temperature for 10 minutes. A 5/3× final concentration mixture of ATP and Kinase substrate 25 was prepared in 1× Kinase buffer. 15 µL of the 5/3× ATP/substrate mixture was added to initiate the reaction. The 384-well plate was centrifuged at 1000 rpm for 30 seconds, mixed by shaking, and incubated at room temperature for 120 minutes. The kinase reaction was terminated by adding 30 µL stop solution, followed by centrifugation at 1000 rpm for 30 seconds and mixing. Conversion rates were measured using a Caliper EZ Reader. The inhibition percentage was calculated as: %Inhibition = (Conversion%_max - Conversion%_sample)/(Conversion%_max - Conversion%_min) × 100. Where Conversion%_sample: Conversion rate reading of test samples; Conversion%_min: Mean value of negative control wells (representing conversion rate without enzyme activity); Conversion%_max: Mean value of positive control wells (representing conversion rate without compound inhibition). Dose-response curves were plotted with log(concentration) as the X-axis and percentage inhibition as the Y-axis. Curve fitting was performed using GraphPad Prism 5 software with the "log(inhibitor) vs. response - Variable slope" model to derive IC50 values for each compound's enzyme inhibitory activity. The fitting formula was: Y = Bottom + (Top - Bottom)/(1 + 10^((LogIC50 - X) × HillSlope)).

CDK7/CycH/MAT1 kinase = CDK7/CycH/MAT1 kinase (Homo sapiens, UniProt P50613); assay: CDK7 kinase activity inhibition assay (ADP-Glo)
Sequence of CDK7/CycH/MAT1 kinase (P50613 whole entry, species assumed): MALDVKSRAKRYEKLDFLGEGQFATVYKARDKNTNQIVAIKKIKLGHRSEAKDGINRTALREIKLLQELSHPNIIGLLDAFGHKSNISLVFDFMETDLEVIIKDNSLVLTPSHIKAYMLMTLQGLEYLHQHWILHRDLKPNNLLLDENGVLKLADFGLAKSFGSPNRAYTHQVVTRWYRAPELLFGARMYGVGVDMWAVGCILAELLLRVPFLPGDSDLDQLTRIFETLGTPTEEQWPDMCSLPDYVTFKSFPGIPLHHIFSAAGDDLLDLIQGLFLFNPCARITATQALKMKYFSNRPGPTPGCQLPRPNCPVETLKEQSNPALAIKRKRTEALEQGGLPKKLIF
Sequence of CDK7/CycH/MAT1 kinase (P51946 whole entry partner, species assumed): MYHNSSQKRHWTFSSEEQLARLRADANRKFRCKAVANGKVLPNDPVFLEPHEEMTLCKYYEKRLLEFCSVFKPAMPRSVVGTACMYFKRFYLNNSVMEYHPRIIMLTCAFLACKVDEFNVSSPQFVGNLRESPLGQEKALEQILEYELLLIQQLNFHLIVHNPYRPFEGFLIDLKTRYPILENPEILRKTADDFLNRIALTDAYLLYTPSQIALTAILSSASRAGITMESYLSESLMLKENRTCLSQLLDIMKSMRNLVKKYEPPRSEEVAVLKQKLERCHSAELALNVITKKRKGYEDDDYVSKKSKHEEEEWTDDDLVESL
Sequence of CDK7/CycH/MAT1 kinase (P51948 whole entry partner, species assumed): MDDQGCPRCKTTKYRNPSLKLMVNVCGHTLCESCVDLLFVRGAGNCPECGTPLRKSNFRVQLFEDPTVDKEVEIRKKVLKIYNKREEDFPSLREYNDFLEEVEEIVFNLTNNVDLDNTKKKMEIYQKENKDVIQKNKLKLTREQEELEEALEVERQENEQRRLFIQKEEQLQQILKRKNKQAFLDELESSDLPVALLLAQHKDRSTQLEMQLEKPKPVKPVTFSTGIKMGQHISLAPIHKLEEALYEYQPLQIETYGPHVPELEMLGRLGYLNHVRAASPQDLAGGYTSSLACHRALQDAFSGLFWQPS
Procedure: Measure compound inhibitory activity against CDK7/CycH/MAT1 kinase using ADP-Glo assay. 1× kinase reaction buffer was prepared (working concentrations: HEPES 50 mM, MgCl2 10 mM, Brij35 0.01%, DTT 2 mM). The kinase reaction conditions were as follows: Kinase concentration: 3.5 ng/µL; Substrate mixture working concentrations: ATP 30 µM, CDK substrate 0.1 mg/ mL. Compounds were serially diluted in DMSO and shaken on an orbital shaker for 20 minutes. 2× kinase solution was prepared using 1× kinase buffer. 1 µL of compound solution was transferred to a 384-well plate. 2 µL of kinase solution was added to each well of the reaction plate. The plate was sealed with adhesive film, centrifuged at 1000 rpm for 60 seconds, and incubated at 25°C for 10 minutes. 4× ATP&substrate mixture was prepared using 1× kinase buffer. 1 µL of 4× ATP&substrate mixture was added to the reaction plate. The plate was sealed with adhesive film, centrifuged at 1000 rpm for 60 seconds, and incubated at 25°C for 60 minutes. 4 µL of ADP-Glo reagent was transferred to the 384-well reaction plate, centrifuged at 1000 rpm for 1 minute, and incubated at 25°C for 40 minutes. 8 µL of Detection solution was transferred to the 384-well reaction plate, centrifuged at 1000 rpm for 1 minute, and incubated at 25°C for 40 minutes. Relative luminescence units (RLU) were measured using a BMG microplate reader, with signal intensity representing kinase activity level. The inhibition percentage was calculated as follows: % inhibition = 100% - [(Compound RLU - Positive Control RLU)/(Negative Control RLU - Positive Control RLU)] × 100%. The IC50 values (half-maximal inhibitory concentration) of compounds were determined by fitting the data to the following nonlinear regression equation using GraphPad Prism 7.0 software: Y = Bottom + (Top - Bottom)/(1 + 10^((LogIC50 - X) × Hill Slope)), where: X = log(compound concentration), Y = % inhibition.

[1] = Table 4, ATP 30 µM, read-out: CDK7 (IC50)

Sequence of FAK kinase (Q05397 whole entry): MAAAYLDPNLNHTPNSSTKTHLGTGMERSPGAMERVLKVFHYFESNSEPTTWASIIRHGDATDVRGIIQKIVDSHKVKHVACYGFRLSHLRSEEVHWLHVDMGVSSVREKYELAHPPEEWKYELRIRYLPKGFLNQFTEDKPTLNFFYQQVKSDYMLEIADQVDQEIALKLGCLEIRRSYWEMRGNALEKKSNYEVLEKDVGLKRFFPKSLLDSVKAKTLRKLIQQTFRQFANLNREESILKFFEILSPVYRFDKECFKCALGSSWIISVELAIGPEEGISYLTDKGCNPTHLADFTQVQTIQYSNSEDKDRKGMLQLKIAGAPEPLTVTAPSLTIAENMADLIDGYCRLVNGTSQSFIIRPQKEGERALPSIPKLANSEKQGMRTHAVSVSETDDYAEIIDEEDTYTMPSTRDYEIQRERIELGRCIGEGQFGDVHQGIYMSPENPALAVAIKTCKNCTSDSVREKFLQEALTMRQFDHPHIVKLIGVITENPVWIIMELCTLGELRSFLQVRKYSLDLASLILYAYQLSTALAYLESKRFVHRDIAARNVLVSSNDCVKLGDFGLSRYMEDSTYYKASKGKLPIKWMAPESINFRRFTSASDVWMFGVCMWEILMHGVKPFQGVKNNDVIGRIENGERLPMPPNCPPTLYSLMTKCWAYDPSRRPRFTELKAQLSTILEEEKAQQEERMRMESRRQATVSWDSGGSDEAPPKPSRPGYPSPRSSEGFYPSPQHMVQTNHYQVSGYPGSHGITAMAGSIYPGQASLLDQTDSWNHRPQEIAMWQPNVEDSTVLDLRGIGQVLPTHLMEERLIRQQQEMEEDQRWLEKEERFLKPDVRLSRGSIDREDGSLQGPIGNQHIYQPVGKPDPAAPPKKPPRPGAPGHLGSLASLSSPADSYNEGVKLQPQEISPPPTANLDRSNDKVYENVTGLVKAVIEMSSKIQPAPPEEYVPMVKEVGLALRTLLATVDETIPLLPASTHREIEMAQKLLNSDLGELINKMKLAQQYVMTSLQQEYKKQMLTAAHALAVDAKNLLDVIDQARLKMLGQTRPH

SMILES | IC50 (FAK kinase) [nM] | IC50 (HPK1 kinase) [nM] | IC50 (CDK7/CycH/MAT1 kinase) [nM] | IC50 (HPK1 kinase; Table 4, read-out: HPK1 (IC50)) [nM] | IC50 (CDK7/CycH/MAT1 kinase; [1]) [nM]
COc1cc2c(cc1Nc1ncc(Cl)c(Nc3ccccc3S(=O)(=O)C(C)C)n1)OC[C@@H]1CN(C3CCOCC3)CCN21 [Compound C1S] | < 1 |  |  |  | 
COc1cc2c(cc1Nc1ncc(Cl)c(Nc3ccccc3S(=O)(=O)C(C)C)n1)OC[C@@H]1CN(C3CCN(C)CC3)CCN21 [Compound C2S] | < 1 |  |  |  | 
CNC(=O)c1ccccc1Nc1cc(Nc2cc3c(cc2OC)N2CCN(C4CCN(C)CC4)C[C@@H]2CO3)ncc1C(F)(F)F [Compound D2R] | < 1 | < 30 | < 15 |  | 
CNC(=O)c1ccccc1Nc1cc(Nc2cc3c(cc2OC)N2CCN(C4CCN(C)CC4)C[C@H]2CO3)ncc1C(F)(F)F [Compound D2S] | < 0.5 |  |  | < 30 | < 15
CNC(=O)c1ccccc1Nc1cc(Nc2cc3c(cc2OC)N2CCN(C4CN(C)C4)C[C@H]2CO3)ncc1C(F)(F)F [Compound D4S] | < 1 |  |  | < 20 | < 10
